Measured values from ChEMBL document CHEMBL4342461, “Schwarzinicines A-G, 1,4-Diarylbutanoid-Phenethylamine Conjugates from the Leaves of Ficus schwarzii” (J Nat Prod, 2020).
pEC50, pIC50: −log10 of the molar value.

Key:
A549 = assay: Cytotoxicity against human A549 cells after 72 hrs by neutral red uptake assay; type: cell-based; conditions: A549, 72 h
MCF7 = assay: Cytotoxicity against human MCF7 cells after 72 hrs by neutral red uptake assay; type: cell-based; conditions: MCF7, 72 h
HCT-116 = assay: Cytotoxicity against human HCT116 cells after 72 hrs by neutral red uptake assay; type: cell-based; conditions: HCT-116, 72 h
Aorta [1] = assay: Vasorelaxant activity in Sprague-Dawley rat aortic rings assessed as reduction in phenylephrine-induced contractions by measuring maximum relaxation magnitude relative to control; type: functional
Aorta [2] = assay: Vasorelaxant activity in Sprague-Dawley rat aortic rings assessed as reduction in phenylephrine-induced contractions; type: functional, tissue-based

SMILES	pEC50 (Aorta [2])	pIC50 (A549)	pIC50 (MCF7)	pIC50 (HCT-116)	Emax (Aorta [1]) [%]	Activity (Aorta [2])
CC[C@]1(O)C[C@@H]2CN(CCc3c([nH]c4ccccc34)[C@@](C(=O)OC)(c3cc4c(cc3OC)N(C)[C@H]3[C@@](O)(C(=O)OC)[C@H](OC(C)=O)[C@]5(CC)C=CCN6CC[C@]43[C@@H]65)C2)C1 [VINBLASTINE]		8.00	9.00	9.30		
COc1ccc(CCC(Cc2ccc(OC)c(OC)c2)N(C)CCc2ccc(OC)c(OC)c2)cc1OC (stereo not drawn)	6.02	< 5.00	< 5.00	< 5.00	106	Dose-dependent effect

The remaining compounds from weak to strong by pEC50 (Aorta [2]), led by results:

pEC50 (Aorta [2])	SMILES	pIC50 (A549)	pIC50 (MCF7)	pIC50 (HCT-116)	Emax (Aorta [1]) [%]	Activity (Aorta [2])
5.60	CC(CCc1ccc(O)cc1)NCCc1ccc(O)c(O)c1 (stereo not drawn) [DOBUTAMINE]				92	
5.68	COc1ccc(CCC(Cc2ccc(OC)c(OC)c2)NCCc2cc(OC)c3c(c2)OCO3)cc1OC (stereo not drawn)				116	Dose-dependent effect
5.70	COc1ccc(CCNC(CCc2ccc(OC)c(OC)c2)Cc2ccc(OC)c(OC)c2)cc1OC (stereo not drawn)	< 5.00	< 5.00	< 5.00	119	Dose-dependent effect
5.73	COc1ccc(CCC(Cc2ccc(OC)c(OC)c2)NCCc2ccc3c(c2)OCO3)cc1OC (stereo not drawn)				120	Dose-dependent effect
